Tests used:
[1] = biological target: T1, wild-type human cardiac sodium channel, hNav1.5 (Homo sapiens, UniProt Q14524); assay: Late INa screening assay (QPatch whole cell patch clamp, HEK293); type: cell-based
Procedure, shortened: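 HEK293 stably expressing hNav1.5 without beta subunits, recorded at 23-25° C. Late current was induced by 10 μM tefluthrin. Cells were depolarized from −120 mV to −20 mV for 250 ms at 0.1 Hz. Compounds were tested at 1 μM in extracellular solution, with baseline taken in 0Na-ECF; output is percent block of late INa.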

hERG potassium channel = hERG potassium channel (Homo sapiens, UniProt Q12809); assay: hERG screening assay (PatchXpress, CHO cells); type: cell-based; set-up: hERG: unit not given here
Chain of hERG potassium channel (Q12809 whole entry): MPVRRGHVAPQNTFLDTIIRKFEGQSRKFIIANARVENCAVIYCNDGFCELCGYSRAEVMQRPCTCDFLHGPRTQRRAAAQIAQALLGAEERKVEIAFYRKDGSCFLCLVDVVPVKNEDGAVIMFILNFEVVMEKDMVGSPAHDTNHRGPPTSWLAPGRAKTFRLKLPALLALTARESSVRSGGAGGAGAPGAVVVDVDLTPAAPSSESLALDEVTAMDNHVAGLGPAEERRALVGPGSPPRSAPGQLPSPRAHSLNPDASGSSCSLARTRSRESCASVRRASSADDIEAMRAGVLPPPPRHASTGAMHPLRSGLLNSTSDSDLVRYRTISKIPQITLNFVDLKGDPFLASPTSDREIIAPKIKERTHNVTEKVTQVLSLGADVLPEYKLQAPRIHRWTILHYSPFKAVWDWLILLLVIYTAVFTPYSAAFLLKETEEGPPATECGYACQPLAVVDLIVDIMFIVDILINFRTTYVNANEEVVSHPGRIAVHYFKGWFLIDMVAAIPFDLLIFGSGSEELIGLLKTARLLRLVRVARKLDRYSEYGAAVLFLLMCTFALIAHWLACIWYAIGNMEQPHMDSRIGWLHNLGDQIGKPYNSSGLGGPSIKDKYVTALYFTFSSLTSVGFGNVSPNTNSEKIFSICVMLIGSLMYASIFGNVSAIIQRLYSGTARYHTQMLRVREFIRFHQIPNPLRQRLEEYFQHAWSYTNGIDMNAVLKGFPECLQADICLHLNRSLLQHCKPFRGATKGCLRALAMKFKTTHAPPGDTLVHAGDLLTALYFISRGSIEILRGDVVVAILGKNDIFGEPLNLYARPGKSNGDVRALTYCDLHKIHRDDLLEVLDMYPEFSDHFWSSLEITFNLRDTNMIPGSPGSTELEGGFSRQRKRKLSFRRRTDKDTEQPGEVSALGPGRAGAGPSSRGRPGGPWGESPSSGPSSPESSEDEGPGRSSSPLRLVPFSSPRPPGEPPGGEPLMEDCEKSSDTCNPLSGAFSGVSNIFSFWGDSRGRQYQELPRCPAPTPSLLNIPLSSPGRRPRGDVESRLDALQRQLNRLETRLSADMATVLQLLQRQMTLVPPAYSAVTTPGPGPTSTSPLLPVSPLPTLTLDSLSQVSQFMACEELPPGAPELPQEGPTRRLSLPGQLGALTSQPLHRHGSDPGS
Description: Compounds were also tested for their effect to block the hERG K^+ channel.
Compounds were screened to test their activity in blocking the hERG potassium channel at AVIVA Biosciences (San Deigo, Calif., USA). The hERG channel is heterologously expressed in a CHO (Chinese Hamster Ovary) cell line. Cells were maintained with standard tissue culture procedures and stable channel expression was maintained with 500 μg/mL G418 in the culture medium. Cells were harvested for testing on the PatchXpress 7000A automated patch clamp with Accumax (Innovative Cell Technologies, San Diego, Calif.) to isolate single cells.
The following solutions were used for electrophysiological recordings. The external solution contained: 2 mM CaCl2; 2 mM MgCl2; 4 mM KCl; 150 mM NaCl; 10 mM Glucose; 10 mM HEPES (pH 7.4 with 1M NaOH; osmolarity, ˜310 mOsm).
hERG channels were activated when the voltage was first stepped to −50 mV for 300 ms from the −80 mV holding potential and then stepped to +20 mV for 5 seconds. At +20 mV the channels open and then largely inactivate, so the currents are relatively small. Upon returning to −50 mV from +20 mV, hERG currents transiently become much larger as inactivation is rapidly removed and then the channel closes. The first step to −50 mV for 300 ms was used as a baseline for measuring the peak amplitude during the step to −50 mV after channel activation. The peak tail current at −50 mV was measured both under control conditions and after addition of compound, each cell serving as its own control.
All compounds were prepared as 10 mM DMSO stocks in glass vials. Stock solutions were mixed by vigorous vortexing and sonication for about 2 minutes at room temperature. For testing, compounds were diluted in glass vials using an intermediate dilution step in pure DMSO and then further diluted to working concentrations in external solution. Dilutions were prepared no longer than 20 minutes before use.
For the electrophysiological recordings, after achieving the whole-cell configuration, cells were monitored for 90 seconds to assess stability and washed with external solution for 66 seconds. The voltage protocol described above was then applied to the cells every 12 seconds and throughout the whole procedure. Only cells with stable recording parameters and meeting specified health criteria were allowed to enter the compound addition procedure.
External solution containing 0.1% DMSO (vehicle) was applied to the cells first to establish the control peak current amplitude. After allowing the current to stabilize for 3 to 5 minutes, 1 μM and then 10 μM test compounds were applied. Each compound concentration was added 4 times and cells were kept in test solution until the effect of the compound reached steady state or for a maximum of 12 minutes. […] Washout in the external solution compartment was performed until the recovery of the current reached steady state.

[2] = biological target: T1, wild-type human cardiac sodium channel, hNav1.5; assay: Peak INa screening assay (tonic and use-dependent block); type: cell-based; conditions: compound at 1 μM
Procedure, shortened: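 Whole-cell automated patch clamp (QPatch) at 23–25°C on HEK293 cells stably expressing hNav1.5 alpha subunit only, with CsF/CsCl pipette solution, pH 7.4. Compound at 1 μM in extracellular solution; bath Na+ could be cut to 20 mM with a nonpermeant cation. Tonic block measured at 0.1 Hz, use-dependent block at 3 Hz.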

[3] = tested on: Female New Zealand rabbits; assay: Ischemia-induced ST segment elevation in anesthetized rabbits; type: in vivo, rabbit
Description: This study was undertaken to determine the anti-ischemic effects of compounds of the present disclosure in an in vivo rabbit model.
Female New Zealand rabbits (3.0-4.0 kg) were purchased from Western Oregon Rabbitry. Animals were housed on a 12-h light and dark cycle and received standard laboratory chow and water. All experiments were performed in accordance with the Guide for the Care and Use of Laboratory Animals published by The National Research Council and with the experimental protocol approved by the Institutional Animal Care Committee of Gilead Sciences, Inc.
Rabbits were anesthetized with ketamine (35 mg/kg) and xylazine (5 mg/kg) intramuscular injection (im). A tracheotomy was performed and the trachea was intubated with an endotracheal tube. The animal was ventilated with room air supplemented with oxygen using a pressure control animal ventilator (Kent Scientific Corp., Torrington, Conn.) at a respiratory rate of 40 strokes/min and peak inspiration pressure of 10 mmH2O, which was adjusted to keep blood gases and pH within the physiological range (iSTAT clinic analyzer, Heska Corp.; Waukesha, Wis.). The left femoral artery was cannulated for the measurement of blood pressure (BP). Blood samples were also withdrawn from femoral artery. The right external jugular vein was cannulated for drug/vehicle administration. Needle electrodes were inserted subcutaneously into the limbs for recording of the surface electrocardiogram (ECG). The heart was exposed via an incision in the 4th intercostal space (4th and/or 5th ribs were cut for a clear surgical vision). The chest was opened and a pericardial cradle was formed using 4 retractors. A coronary artery occluder, comprised of a snare made of 5 cm PE-10 tubing with a 6-0 Prolene polypropylene suture in it, was placed loosely around the left anterior descending artery (LAD) at its origin. Two unipolar electrodes, made with teflon coated silver wire attached to a small patch of filter paper, were attached on the surface of the ischemic and normal regions of the left ventricle to record epicardial electrocardiogram. Reference electrodes were placed in the open incision of the neck. The body temperature of the animal was monitored via a rectal thermometer and maintained at 37-40° C. by adjusting the surface temperature of the surgical table. Regional ischemia (15 min) was induced by ligating the LAD followed by 15 min of reperfusion caused by releasing the ligation. The heart was excised at the end of the experiment and the LAD was re-ligated. The ischemic area was visualized by perfusing the heart with 1% Evans blue in saline and calculated as a percentage of total ventricular weight. Rabbits with ischemic area less than 10% or larger than 25% were excluded from the analysis. Animals were randomly assigned to vehicle and test compound groups. Test compounds was dissolved in 5% NMP, 30% PG, 45% PEG 400 and 20% de-ionized water (dH2O). Test compound was given as an iv bolus at 0.1, 0.2 and 0.4 mg/kg. After 30 min of dosing, the heart was subjected to 15 min of ischemia followed by 15 min of reperfusion.

[4] = biological target: T2, hNav 1.1 sodium channel isoform (Homo sapiens, UniProt P35498); assay: hNav1.1 whole-cell voltage-clamp assay; type: cell-based; conditions: % Inhibition at 1 uM; use-dependent block, 10 Hz; read-out: NAV1.1* UDB-10HZ
T2 construct: expressed in transfected cells; host or cells: HEK293, transient transfection (Qiagen Superfect)

[5] = biological target: T3, hNav 1.2 sodium channel isoform (Homo sapiens, UniProt Q99250); assay: hNav1.2 whole-cell voltage-clamp assay; type: cell-based; conditions: use-dependent block, 10 Hz, read-out: NAV1.2* UDB-10HZ
T3 construct: expressed in transfected cells
T3 sequence (Q99250 whole entry, canonical isoform): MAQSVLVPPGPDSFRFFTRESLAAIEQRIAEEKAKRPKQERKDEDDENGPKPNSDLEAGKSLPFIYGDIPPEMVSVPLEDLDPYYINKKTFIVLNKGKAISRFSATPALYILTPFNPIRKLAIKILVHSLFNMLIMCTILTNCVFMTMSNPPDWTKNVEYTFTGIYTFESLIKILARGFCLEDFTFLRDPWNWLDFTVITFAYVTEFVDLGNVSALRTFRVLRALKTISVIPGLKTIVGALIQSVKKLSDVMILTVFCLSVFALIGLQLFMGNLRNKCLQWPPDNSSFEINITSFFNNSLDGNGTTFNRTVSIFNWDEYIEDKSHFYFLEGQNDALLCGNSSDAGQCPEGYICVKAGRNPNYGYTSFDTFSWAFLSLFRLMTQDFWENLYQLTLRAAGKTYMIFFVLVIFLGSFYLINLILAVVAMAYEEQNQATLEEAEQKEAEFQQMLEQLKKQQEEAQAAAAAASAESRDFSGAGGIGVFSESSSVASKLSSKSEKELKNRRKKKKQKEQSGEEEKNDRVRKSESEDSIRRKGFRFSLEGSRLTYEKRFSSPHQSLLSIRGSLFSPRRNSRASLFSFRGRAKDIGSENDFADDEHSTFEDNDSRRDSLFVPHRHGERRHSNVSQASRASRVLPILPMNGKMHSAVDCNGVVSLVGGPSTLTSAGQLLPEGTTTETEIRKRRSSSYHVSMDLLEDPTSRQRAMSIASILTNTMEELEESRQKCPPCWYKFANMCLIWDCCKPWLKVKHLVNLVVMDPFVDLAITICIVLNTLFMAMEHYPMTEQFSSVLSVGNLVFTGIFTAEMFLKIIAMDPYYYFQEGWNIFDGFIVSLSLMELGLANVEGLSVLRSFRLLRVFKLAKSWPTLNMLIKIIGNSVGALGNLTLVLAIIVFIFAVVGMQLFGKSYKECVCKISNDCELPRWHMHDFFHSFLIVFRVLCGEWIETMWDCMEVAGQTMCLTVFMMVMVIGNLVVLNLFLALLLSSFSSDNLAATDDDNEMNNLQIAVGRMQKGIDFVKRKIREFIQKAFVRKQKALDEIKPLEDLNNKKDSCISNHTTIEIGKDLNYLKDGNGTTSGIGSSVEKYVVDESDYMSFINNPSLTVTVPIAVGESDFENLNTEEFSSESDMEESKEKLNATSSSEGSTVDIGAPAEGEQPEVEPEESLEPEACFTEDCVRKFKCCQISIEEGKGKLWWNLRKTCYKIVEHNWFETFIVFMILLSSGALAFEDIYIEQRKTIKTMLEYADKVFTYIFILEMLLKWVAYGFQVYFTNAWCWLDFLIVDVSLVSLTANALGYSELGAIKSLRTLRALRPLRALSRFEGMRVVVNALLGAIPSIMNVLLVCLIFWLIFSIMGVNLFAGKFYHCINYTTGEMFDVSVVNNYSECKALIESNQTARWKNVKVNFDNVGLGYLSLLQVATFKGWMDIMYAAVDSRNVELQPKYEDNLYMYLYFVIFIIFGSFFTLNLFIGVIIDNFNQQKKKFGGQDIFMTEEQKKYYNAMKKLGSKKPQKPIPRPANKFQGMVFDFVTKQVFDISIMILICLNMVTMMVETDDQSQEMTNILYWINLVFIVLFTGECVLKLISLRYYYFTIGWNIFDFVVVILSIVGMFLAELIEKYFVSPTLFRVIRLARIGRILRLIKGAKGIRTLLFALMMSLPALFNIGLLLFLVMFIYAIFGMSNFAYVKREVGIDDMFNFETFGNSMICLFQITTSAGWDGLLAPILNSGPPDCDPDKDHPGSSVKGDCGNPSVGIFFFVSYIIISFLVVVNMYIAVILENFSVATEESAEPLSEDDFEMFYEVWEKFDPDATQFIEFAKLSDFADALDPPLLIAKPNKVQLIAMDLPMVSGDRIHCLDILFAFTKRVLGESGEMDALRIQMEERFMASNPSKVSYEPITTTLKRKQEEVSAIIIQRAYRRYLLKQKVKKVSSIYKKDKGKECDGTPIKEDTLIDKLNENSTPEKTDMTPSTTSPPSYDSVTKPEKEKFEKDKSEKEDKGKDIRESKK
Description: Wild-type (WT) cDNA stably transfected in Chinese hamster ovary (CHO) cells is used to record INa. Unless otherwise noted, all reagents are purchased from Sigma-Aldrich (St Louis, Mo., U.S.A.).
Whole-cell voltage-clamp recordings are used to measure the biophysical properties of WT. […] Cells are allowed to stabilize for 10 min after establishment of the whole-cell configuration before current is measured. Series resistance is compensated 90% to assure that the command potential is reached within microseconds with a voltage error<2 mV. Leak currents are subtracted by using an online P/4 procedure and all currents are low-pass Bessel filtered at 5 kHz and digitized at 50 kHz.
For clarity, representative ramp currents are low pass filtered off-line at 50 Hz. Specific voltage-clamp protocols assessing channel activation, fast inactivation and availability during repetitive stimulation are used. Results are presented as mean±SEM.
Tonic block of peak current is measured using a step to −10 mV (20 ms) from a holding potential of −120 mV (0.2 Hz). Use-dependent block of peak current is measured during pulse number 300 of a pulse train (−10 mV, 5 ms, 300 pulses, 10 Hz or 25 Hz) from a holding potential of −120 mV. Two sequential pulse train stimulations are averaged to obtain mean current traces for each recording condition, which are then used for offline subtraction and analysis.
For use-dependent studies, cells are stimulated with depolarizing pulse trains (−10 mV, 5 ms, 300 pulses, 10 and 25 Hz) from a holding potential of −120 mV. Currents are then normalized to the peak current recorded in response to the first pulse in each frequency train. For tonic block studies, peak current is evaluated in response to a 20 ms depolarization to −10 mV (0.2 Hz). […] Results are presented as mean±SEM.
A stock solution of 10 mM compound of Formula I is prepared in 0.1 M HCl or DMSO. […] The final DMSO concentration was kept at 0.1% in all solutions. Direct application of the perfusion solution to the clamped cell is achieved using the Perfusion Pencil system (Automate, Berkeley, Calif.). Direct cell perfusion is driven by gravity at a flow rate of 350 μL/min using a 250 micron tip. This system sequesters the clamped cell within a perfusion stream and enables complete solution exchange within 1 second. The clamped cell is perfused continuously starting immediately after establishing the whole-cell configuration. Control currents are measured during control solution perfusion.
Solutions are perfused for three minutes prior to current recordings to allow equilibrium (tonic) drug block. Tonic block of peak currents is measured from this steady-state condition. Three sequential current traces are averaged to obtain a mean current for each recording. The mean current traces are utilized for offline analysis. Use-dependent block of peak current is measured during pulse number 300 of the pulse train, (−10 mV, 5 ms, 300 pulses, 10 Hz) from a holding potential of −120 mV.

[6] = HEK293, % Inhibition at 1 uM, read-out: Late INa*
[7] = HEK293, percent block of late INa, compound at 1 μM, 10 μM Tefluthrin, read-out: Late INa 1 μM
[8] = tonic block of peak INa, 0.1 Hz, read-out: Peak TB 1 μM
[9] = use-dependent block of peak INa, 3 Hz, read-out: Peak UDB 1 μM

T1 sequence (Q14524 whole entry): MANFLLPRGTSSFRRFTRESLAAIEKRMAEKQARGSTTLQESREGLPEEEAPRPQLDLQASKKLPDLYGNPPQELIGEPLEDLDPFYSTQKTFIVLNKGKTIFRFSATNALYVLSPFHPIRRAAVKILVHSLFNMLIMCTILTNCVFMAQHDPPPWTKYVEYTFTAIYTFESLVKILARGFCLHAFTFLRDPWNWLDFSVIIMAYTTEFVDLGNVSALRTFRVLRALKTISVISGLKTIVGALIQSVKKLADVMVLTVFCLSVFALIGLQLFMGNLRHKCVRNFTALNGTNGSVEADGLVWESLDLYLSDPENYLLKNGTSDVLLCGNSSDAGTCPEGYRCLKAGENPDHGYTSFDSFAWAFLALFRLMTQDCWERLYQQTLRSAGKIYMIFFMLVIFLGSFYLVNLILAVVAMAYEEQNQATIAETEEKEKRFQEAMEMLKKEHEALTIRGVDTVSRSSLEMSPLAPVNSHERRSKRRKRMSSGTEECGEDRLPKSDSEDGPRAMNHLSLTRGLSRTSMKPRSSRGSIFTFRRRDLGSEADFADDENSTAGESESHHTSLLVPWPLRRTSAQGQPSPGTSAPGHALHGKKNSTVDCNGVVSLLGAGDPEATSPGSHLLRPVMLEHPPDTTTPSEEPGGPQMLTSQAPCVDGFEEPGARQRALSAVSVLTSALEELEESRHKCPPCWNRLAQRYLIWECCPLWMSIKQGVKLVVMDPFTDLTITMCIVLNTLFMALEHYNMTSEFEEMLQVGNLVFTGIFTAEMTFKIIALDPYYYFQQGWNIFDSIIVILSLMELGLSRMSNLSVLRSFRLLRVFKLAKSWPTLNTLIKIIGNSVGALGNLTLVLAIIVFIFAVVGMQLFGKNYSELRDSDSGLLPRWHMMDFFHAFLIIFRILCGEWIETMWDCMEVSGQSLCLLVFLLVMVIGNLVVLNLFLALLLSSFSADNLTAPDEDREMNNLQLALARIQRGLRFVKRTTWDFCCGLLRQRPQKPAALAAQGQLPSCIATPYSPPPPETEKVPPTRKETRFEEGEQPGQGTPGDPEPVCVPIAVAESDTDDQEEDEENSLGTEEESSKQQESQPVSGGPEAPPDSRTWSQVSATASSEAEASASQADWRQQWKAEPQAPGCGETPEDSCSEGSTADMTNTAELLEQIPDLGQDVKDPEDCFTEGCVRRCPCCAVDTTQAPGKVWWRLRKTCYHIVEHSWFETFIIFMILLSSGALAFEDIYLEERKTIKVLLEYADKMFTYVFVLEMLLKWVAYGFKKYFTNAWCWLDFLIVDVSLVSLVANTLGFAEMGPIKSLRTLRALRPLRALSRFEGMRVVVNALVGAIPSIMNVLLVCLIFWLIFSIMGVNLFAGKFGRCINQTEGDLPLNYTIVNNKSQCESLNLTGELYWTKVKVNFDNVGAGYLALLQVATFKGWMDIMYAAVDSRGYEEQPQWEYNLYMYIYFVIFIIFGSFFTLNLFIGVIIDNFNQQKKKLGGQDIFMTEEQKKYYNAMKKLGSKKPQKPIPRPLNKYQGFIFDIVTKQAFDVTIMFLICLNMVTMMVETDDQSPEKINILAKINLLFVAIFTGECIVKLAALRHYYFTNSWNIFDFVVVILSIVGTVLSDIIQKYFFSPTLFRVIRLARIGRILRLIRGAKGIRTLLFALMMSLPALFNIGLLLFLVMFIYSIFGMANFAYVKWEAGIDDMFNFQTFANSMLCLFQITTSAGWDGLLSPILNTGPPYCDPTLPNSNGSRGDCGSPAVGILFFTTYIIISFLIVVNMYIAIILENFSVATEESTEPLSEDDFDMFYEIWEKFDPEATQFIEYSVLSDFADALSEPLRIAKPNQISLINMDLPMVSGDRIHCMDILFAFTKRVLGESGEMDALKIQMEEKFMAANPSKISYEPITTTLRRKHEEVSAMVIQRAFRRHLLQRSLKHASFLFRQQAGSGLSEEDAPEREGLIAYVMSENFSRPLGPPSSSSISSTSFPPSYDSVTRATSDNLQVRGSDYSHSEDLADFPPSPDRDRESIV

| Structure (SMILES) | inhibition at 1 µM [1, 6] [%] | inhibition at 1 µM [1, 7] [%] | hERG (hERG potassium channel) | inhibition at 1 µM [2, 8] [%] | inhibition at 1 µM [2, 9] [%] | area under curve (AUC) for the ST segment height reduced (vs. control) ([3]; 0.28 μM plasma concentration, iv bolus, 15 min ischemia) [%] | effect on blood pressure (BP), heart rate (HR) and ECG intervals prior to the ischemia ([3]; at the plasma concentration levels studied) | ischemia-induced ST elevation ([3]; iv bolus 30 min before 15 min ischemia) | inhibition at 1 µM [4] [%] | inhibition at 1 µM [5] [%] |
| --- | --- | --- | --- | --- | --- | --- | --- | --- | --- | --- |
| Cc1cccc(CN2CCOc3ccc(-c4ccc(OC(F)(F)F)cc4)cc3C2=O)n1 [II-17, 4-((6-methylpyridin-2-yl)methyl)-7-(4-(trifluoromethoxy)phenyl)-3,4-dihydrobenzo[f][1,4]oxazepin-5(2H)-one] | 59 | 59 | <10 | 47 | 46 |  |  |  |  |  |
| O=C1c2cc(-c3ccc(C(F)(F)F)cc3)ccc2OCCN1Cc1ncccn1 [II-61, 4-(pyrimidin-2-ylmethyl)-7-(4-(trifluoromethyl)phenyl)-3,4-dihydrobenzo[f][1,4]oxazepin-5(2H)-one] |  |  | <10 |  |  | 38 | no significant effect | dose-dependently prevented |  |  |
| Cc1cccnc1CN1CCOc2ccc(-c3ccc(OC(F)(F)F)cc3)cc2C1=O [II-75, 4-((3-methylpyridin-2-yl)methyl)-7-(4-(trifluoromethoxy)phenyl)-3,4-dihydrobenzo[f][1,4]oxazepin-5(2H)-one] | 68 | 68 |  | 45 | 59 |  |  |  | 35 | 52 |
| CCc1ccc(-c2ccc3c(c2)C(=O)N(Cc2ncccn2)CCO3)cc1 [II-91, 7-(4-ethylphenyl)-4-(pyrimidin-2-ylmethyl)-3,4-dihydrobenzo[f][1,4]oxazepin-5(2H)-one] | 54 | 54 |  | 8 | 11 |  |  |  | -9 | -3 |
| Cc1ccnc(CN2CCOc3ccc(-c4ccc(OC(F)(F)F)cc4)cc3C2=O)n1 [II-138, 4-((4-methylpyrimidin-2-yl)methyl)-7-(4-(trifluoromethoxy)phenyl)-3,4-dihydrobenzo[f][1,4]oxazepin-5(2H)-one] | 47 | 47 |  | 16 | 23 |  |  |  | 21 | 40 |
| O=C1c2cc(-c3ccc(OC(F)(F)F)cc3)ncc2OCCN1Cc1ccccc1 [XII-1, 4-benzyl-7-(4-(trifluoromethoxy)phenyl)-3,4-dihydropyrido[4,3-f][1,4]oxazepin-5(2H)-one] | 53 | 53 |  | 25 | 21 |  |  |  | -1 | -4 |
